Structures are written as SMILES. Where “and” joins values, the source holds several entries; their conditions need not be identical. Equal values may be shown once. Non-standard residues stand in square brackets, D forms with d. Residues, ends and D or L forms follow the SMILES beside them. *: point of attachment. Cha = N[C@@H](CC1CCCCC1)C(=O)O; dChg = N[C@@H](C(=O)O)C1CCCCC1; dPhg = N[C@@H](C(=O)O)c1ccccc1; pNA = O=[N+]([O-])c1ccc(N*)cc1; Chg = N[C@H](C(=O)O)C1CCCCC1

As usually defined, the IC50 is the concentration that gives 50% inhibition. Read a low IC50 as greater potency. The Ki is the dissociation constant of the complex between target and ligand, obtained from inhibition or displacement.

Holding throughout (assay type): biochemical
For test [1], the target named is T1, Human urinary kallikrein (Homo sapiens, UniProt P06870).
T1 construct: Human urinary kallikrein (hereinafter "HUK") was highly purified using a modification of published methods; from tissue; host or cells: human urine
T1 sequence (P06870 25-262): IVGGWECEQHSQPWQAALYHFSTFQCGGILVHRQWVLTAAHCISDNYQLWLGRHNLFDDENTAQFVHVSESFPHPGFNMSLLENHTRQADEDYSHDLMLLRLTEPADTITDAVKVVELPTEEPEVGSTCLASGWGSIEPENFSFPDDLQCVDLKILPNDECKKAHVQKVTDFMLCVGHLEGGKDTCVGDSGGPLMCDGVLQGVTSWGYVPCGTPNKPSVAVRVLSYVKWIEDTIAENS
Nature of the test: IC50 of tripeptide 4-nitroanilides against HUK cleavage of S-2266. The settings on record: S-2266, 4.0 ng HUK, 37 C, pH 9.0. The source says: An evaluation of other possible peptide sequences and their potential effect as substrate analogue inhibitors specifically of tissue kallikrein was undertaken using chromogenic substrates comprising alternate series of tripeptide 4-nitroanilides using previously described methods [Amundsen et al., "Methods For The Determination Of Glandular Kallikrein By Means Of A Chromogenic Tripeptide Substrate," in Kinins-II. Part A. Plenum Press, 1979, pages 83-95]. This methodology relies on the capacity of HUK to cleave p-nitroaniline from specifically synthesized tripeptide 4-nitroanilines. Controls for this experimental series included S-2266 comprising D-Val-Leu-Arg-4NA; S-2444 comprising D-Glu-Gly-Arg-4NA; and S-2302 comprising D-Pro-Phe-Arg-4NA respectively. The 50% inhibitory concentration (IC50) values for each synthesized tripeptide 4-nitroanilide was determined at 37 C. at pH 9.0 using the specific kallikrein substrates S-2266 (Kabi, Helena Laboratories, Beaumont, Tex.). 4.0 nanograms (hereinafter "ng") of HUK were used in each sample. Blanks lacking S-2266 were run in parallel to correct for hydrolysis of all samples. In all cases, the amount of 4-nitroaniline generated from each tripeptide was less than 10% of that observed for the hydrolysis of S-2266.

The target of test [2] is T1, Human urinary kallikrein. Nature of the test: KI determination: inhibition of HUK cleavage of chromogenic substrate S-2266. As to conditions: HUK, substrate S-2266, pH 9.0, 37 C; read-out: KI. The protocol: (§1) Human urinary kallikrein (hereinafter "HUK") was highly purified using a modification of published methods that employ ultrafiltration, aprotinin-CH-sepharose affinity chromatography, and Sephadex G-100 gel filtration [ole-MoiYoi et al., Proc. Natl. Acad. Sci. USA 76: 3121-3125 (1979)]. […] The pH of each fraction was determined immediately upon elution, and the fraction was neutralized by addition of 2.0 ml of 2M Tris-HCL buffer (pH 8.0).
KI Determinations: KI measurements were performed using a HP8450A diode array spectrophotometer (Hewlett Packard; Palo Alto, Calif.) attached to a Model 216 computer using the multi-component assay program modified to allow simultaneous determination of reaction velocity in four samples. Dixon plots were used to data reduction and for calculation of […]. […] Inhibition of biologically active kinin from LMW-kininogen was done at pH 7.7 and 37 C.
Procedurally, the KI values for the preliminary analogue inhibitors reported previously [Okunishi et al., Hypertension 7 (Suppl. I): I-72-I-75 (1985)] were determined by adding the chromogenic substrate S-2266 comprising D-Val-Leu-Arg-4-nitroaniline to a mixture of the analogue inhibitor and the HUK.
Initially, the inhibitor constant (KI) for each of these novel inhibitor compositions was determined using purified HUK and the tripeptide nitroanilide, S-2266. The ability to inhibit hydrolysis of the S-2266 substrate was performed in 50 mM tris-HCL buffer (pH 9.0) at 37 C. Subsequently, the ability of these novel inhibitors to inhibit human plasma kallikrein and bovine pancreatic trypsin were similarly examined using the specific substrates H-D-Pro-Phe-Arg-p-nitroanilide (S-2302) and Glu-Gly-Arg-p-nitroanilide (S-2444) respectively. The degradation products of each series was purified by HPLC and quantified by liquid scintillation counting as previously described.

Test [3] deals with T1, Human urinary kallikrein. The test is described as follows: KM determination: hydrolysis of substrate analogues by HUK (HPLC, scintillation counting). As to conditions: hydrolysis by HUK; kininogen = 1.0. The protocol: as §1
KM Determination: Hydrolysis of the substrate analogue inhibitors by HUK was measured by combining the test inhibitor at different concentrations on either side of the KM value with the enzyme at pH 9.0 for thirty minutes at 37 C. The cleavage products were separated from the starting material in the digest by HPLC on a Beckman octadecylsilane (ODS) column (1×25 cm) using a thirty minute gradient of from 0-70% CH3 CN in triethylammonium phosphate buffer (pH 7.0). The starting materials and reaction products were completely resolved under these conditions. Absorbance of the HPLC effluent was monitored at 220 nm. Individual fractions were collected and the amount of peptide degradation products was quantitated by counting in a liquid scintillation counter. Samples containing individual inhibitors were incubated without HUK and solvent blanks were also chromatographed and analyzed in the same way.
For test purposes, in these HUA cleavage studies, individual peptide sequences were synthesized, purified, and characterized as previously described herein. For these cleavage studies, doubly labelled peptides were prepared using [^3 H]-valine and […] respectively. In addition, 6.0N HCL-dioxane was used for removal of tert-butoxycarbonyl protecting groups and 90% hydrogen fluoride/10% anisole (volume/volume) for global deprotection on completion of the synthesis. After extraction and gel filtration on Sephadex G-15, final purification was completed by isocratic elution from a synchrom RP-P column (2.1×25 cm) with CH3 CN--H2 O (8 ml/min). The resultant peptides were deemed to be homogeneous by amino acid analysis; high performance liquid chromatography; thin layer chromatography; and A230 /A260 ratio analysis. […]

In test [1], `N=C(N)NCCC[C@H](NC(=O)[C@H](CC1CCCCC1)NC(=O)[C@H](N)c1ccccc1)C(=O)Nc1ccc([N+](=O)[O-])cc1` [D-0Gly--Cha--Arg--4NA] (H-[dPhg]-[Cha]-Arg-pNA) showed an IC50 of 7.4 µM.

With `NCCCC[C@H](NC(=O)[C@H](CC1CCCCC1)NC(=O)[C@H](N)c1ccccc1)C(=O)Nc1ccc([N+](=O)[O-])cc1` [D-0Gly--Cha--Lys--4NA] (H-[dPhg]-[Cha]-Lys-pNA), the half-inhibitory concentration (IC50) in test [1] was over 200 µM. Same read-out and setting: the same measure for `NCCCC[C@H](NC(=O)[C@H](CC1CCCCC1)NC(=O)[C@H](N)C1CCCCC1)C(=O)Nc1ccc([N+](=O)[O-])cc1` [D-Chg--Cha--Lys--4NA] (H-[dChg]-[Cha]-Lys-pNA): 150 µM. `N=C(N)NCCC[C@H](NC(=O)[C@H](Cc1ccccc1)NC(=O)[C@H](N)C1CCCCC1)C(=O)Nc1ccc([N+](=O)[O-])cc1` [D-Chg--Phe--Arg--4NA] (H-[dChg]-Phe-Arg-pNA): in test [1], 3.7 µM corresponded to half-maximal inhibition (IC50).

With `CC(=O)N[C@@H](Cc1ccccc1)C(=O)N[C@@H](CCCN=C(N)N)C(=O)N[C@@H](CO)C(=O)N[C@H](C(=O)N[C@@H](CCC(N)=O)C(N)=O)C(C)C` [KKI-4, Ac--Phe--Arg--Ser--Val--Gln--NH2, reference compound] (Ac-FRSVQ-NH2), the Ki in test [2] was found to be 35 µM. For `CC(=O)N[C@@H](Cc1ccccc1)C(=O)N[C@@H](CCCNC(=N)N)C(=O)N[C@@H](CO)C(=O)N[C@H](C(=O)N[C@@H](CCC(N)=O)C(N)=O)C(C)C` [KKI-4, Ac--Phe--Arg--Ser--Val--Gln--NH2, reference compound] (Ac-FRSVQ-NH2), the “RELATIVE SPECIFICITY” value in test [3] amounted to 4.2.

For the compound `CC(=O)N1CCC[C@H]1C(=O)N[C@@H](Cc1ccccc1)C(=O)N[C@@H](CCCNC(=N)N)C(=O)N[C@@H](CO)C(=O)N[C@H](C(=O)N[C@@H](CCC(N)=O)C(N)=O)C(C)C` [KKI-5, Ac--Pro--Phe--Arg--Ser--Val--Gln--NH2, reference compound] (Ac-PFRSVQ-NH2), in test [3], the “RELATIVE SPECIFICITY” value worked out at 3.2. Also, the Ki in test [2] is 156 µM and 136 µM.

On to `CC(=O)N[C@@H](CO)C(=O)N1CCC[C@H]1C(=O)N[C@@H](Cc1ccccc1)C(=O)N[C@@H](CCCNC(=N)N)C(=O)N[C@@H](CO)C(=O)N[C@H](C(=O)N[C@@H](CCC(N)=O)C(N)=O)C(C)C` [KKI-6, Ac--Ser--Pro--Phe--Arg--Ser--Val--Gln--NH2, reference compound] (Ac-SPFRSVQ-NH2), for which the “RELATIVE SPECIFICITY” value in test [3] is given as 45.4. Besides, the Ki in test [2] was found to be 73 µM. Compound `N=C(N)NCCC[C@H](NC(=O)[C@H](CC1CCCCC1)NC(=O)[C@@H](N)C1CCCCC1)C(=O)Nc1ccc([N+](=O)[O-])cc1` [L-Chg--Cha--Arg--4NA] (H-[Chg]-[Cha]-Arg-pNA) returned an IC50 in test [1] of 11.5 µM. `CC(C)C[C@H](NC(=O)[C@@H](N)C1CCCCC1)C(=O)N[C@@H](CCCNC(=N)N)C(=O)Nc1ccc([N+](=O)[O-])cc1` [L-Chg--Leu--Arg--4NA] (H-[Chg]-Leu-Arg-pNA) showed an IC50 in test [1] of 18.7 µM.

Compound `CC[C@H](C)[C@H](N)C(=O)N[C@@H](CC1CCCCC1)C(=O)N[C@@H](CCCNC(=N)N)C(=O)Nc1ccc([N+](=O)[O-])cc1` [L-Ile--Cha--Arg--4NA] (H-Ile-[Cha]-Arg-pNA) returned an IC50 in test [1] of 10.5 µM.
